Test results: patent US20090227492A1, “TREATMENT OF NEUROLOGICAL CONDITIONS USING COMPLEMENT C5a RECEPTOR MODULATORS” (priority 2004, published 2009)
Bridge positions count the residues as written; N and C are the ends. Square brackets hold non-standard residues; d marks the D form. Peptide text beside a SMILES is read from it. * marks the point of attachment. Hydrocinnamoyl = O=C(CCc1ccccc1)*; Cit = NC(=O)NCCC[C@H](N)C(=O)O; dCha = N[C@H](CC1CCCCC1)C(=O)O; Orn = NCCC[C@H](N)C(=O)O

Assays:
[1] = test system: Transgenic Sprague-Dawley rats carrying mutant SOD-1 gene; experiment: transgenic SOD-1 rat model of ALS; type: in vivo; conditions: approximately 1 mg/kg/day in drinking water from 70 days of age; for average age of onset of loss of motor function: male rats, untreated 116+/−4 days; for percent survival over time (mortality) / percentage of rats showing onset of motor symptoms over time: vs untreated
Method: Treatment commenced when the rats were 70 days of age. Drugs were dosed in the drinking water at approximately 1 mg/kg/day. A group of 3 wild type (WT) Sprague-Dawley rats (G63) were included as sham control animals. Rats were then monitored daily for signs of motor disturbance, using the following scale:
Body weights were also recorded daily. Rats were euthanised when they reached a score of 4 for the righting response, or had lost >20% of their peak body weight.

3-NP rat model [2] = experiment: histological and histochemical examination of rat brain sections from the 3-NP model (naphthyl esterase, TUNEL); type: in vivo; conditions: brain sections of rats of Example 2
Source text: Paraffin sections of brain tissue from the rats used in Example 2 were stained with hematoxylin and eosin and examined under the microscope. […] The TUNEL (TdT-mediated dUTP Nick-End Labeling) assay (Gavrieli, Y., et al. (1992) J. Cell. Biol. 119, 493.) measures nuclear DNA fragmentation, which is an important biochemical hallmark of apoptosis. […] Brain sections were therefore also stained for TUNEL analysis using a standard kit (ApopTag Plus/TUNEL method; Chemicon). Striatal sections of brains containing the area of interest were fixed to a slide and deparaffinized. Slides were then pretreated with Proteinase K (20 μg/mL), and endogenous peroxidases quenched with 3% hydrogen peroxide. Equilibration buffer was then added, followed by TdT enzyme for 1 hour. Samples were then washed, and anti-digoxigenin conjugate added for 30 min. Peroxidase substrate (diaminobenzidine) was then added, and colour allowed to develop over 6 min. Samples were then counterstained with 0.5% methyl green and mounted with Permount. Sections were washed in PBS (0.1 M, ph 7.4) in between each step.

3-NP rat model [3] = experiment: 3-NP rat model (3-nitropropionic acid neurotoxicity); type: in vivo
Method: Unless otherwise stated, the protocol for induction of 3-NP neurotoxicity employed in the present study was similar to that of Blum et al (2001; 2002), except that we used 42 mg/kg/day for 7 days rather than 56 mg/kg for 5 days. Briefly, a 90 mg/mL solution of 3-NP in PBS (0.1 M, pH 7.4) was prepared and adjusted to pH 7.4 with 5M NaOH. Alzet osmotic mini-pumps (model 2ML1, delivering 10 μL/hr for 7 days) filled with this solution were implanted into 12 week old male Lewis rats, so that each rat received exactly 42 mg/kg/day.
Rats were housed in individual cages. The rats were anaesthetised with ketamine, xylazine and zolazapam. A pump was inserted s.c. into the back of each rat via an incision between the scapulae, and the incision closed with wound clips. Following recovery from anaesthesia, food intake, body weight and neurological were evaluated daily over the next 7 days. Neurological and behavioural evaluation according to standard criteria was also performed at several points by an observer blinded to the identity of the groups.
After completion of the study, rats were deeply anaesthetised with xylazine and ketamine. The rats were then perfused with approximately 100 mL of sodium nitrite solution to remove blood, followed by approximately 400 mL of formaldehyde solution to fix the brains in situ. Brains were then carefully removed and stored in formaldehyde solution for at least 3 days, before processing for histology. Slides were stained with cresyl violet and examined by light microscopy. […]
PMX53 (10 mg/kg/day) and PMX205 (10 mg/kg/day) were administered daily by gavage and ibuprofen (30 mg/kg/day) administered in the drinking water, beginning 2 days prior to 3-NP administration. Infliximab was administered as a single 5 mg/kg i.v. infusion on Day 0. […]

[4] = levels of PMX compounds in brain and plasma following i.v. injection (blood-brain barrier); conditions: female Wistar rats; 3 mg/kg i.v.; 15 min; brain perfused with saline
Method: Rats were then left for 15 min, at which point a sample of blood was taken from the tail for plasma collection, and rats were then perfused via cardiac puncture with 150 mL of saline to remove blood from the brain. The brain was then dissected out. Plasma and brain samples of were prepared for pharmacokinetic analysis, and the levels of PMX compounds determined in each sample.

[5] = Example 2, PMX53, PMX205 10 mg/kg/day gavage, ibuprofen 30 mg/kg/day drinking water, infliximab 5 mg/kg i.v. Day 0, 7 days

Molecule	average age of onset of loss of motor function [1] [days]	percent survival over time (mortality) [1]	percentage of rats showing onset of motor symptoms over time [1]	degree of apoptosis (TUNEL) (3-NP rat model [2])	neutrophil infiltration (naphthyl esterase stain) (3-NP rat model [2])	neurological/behavioural score (3-NP rat model [3]; [5])	other results
CC(=O)N[C@@H](Cc1ccccc1)C(=O)N[C@H]1CCCNC(=O)[C@H](CCCNC(=N)N)NC(=O)[C@H](Cc2c[nH]c3ccccc23)NC(=O)[C@@H](CC2CCCCC2)NC(=O)[C@@H]2CCCN2C1=O [PMX53, AcPhe[Orn-Pro-D-Cyclohexylalanine-Trp-Arg]]	124 ± 10	possibly a small improvement	possibly a small improvement	reduced the degree of apoptosis	completely prevented neutrophil infiltration	significant protection	loss of body weight (3-NP rat model [3]; Example 1 pilot, 2 mg/kg daily in drinking water plus 1 mg/kg s.c. Days 0, 3, 6, 8, Days 5-7, P<0.05, n=5, vs untreated): significantly less loss of body weight; neurological/behavioural score (3-NP rat model [3]; Example 1 pilot, 2 mg/kg daily in drinking water plus 1 mg/kg s.c., Days 4-9, P<0.05, n=5, vs untreated): significantly decreased neurological/behavioural scores; food intake (3-NP rat model [3]; Example 1 pilot, 2 mg/kg daily in drinking water plus 1 mg/kg s.c., Days 5-7, P<0.05, n=5, vs untreated): significantly greater food intake; necrotic cells in the striatal regions (cresyl violet histology) (3-NP rat model [3]; Example 1 pilot, vs controls): fewer necrotic cells; necrotic cells in the striatal regions (cresyl violet histology) (3-NP rat model [3]; Example 2, 10 mg/kg/day gavage, day 7): fewer necrotic cells
NC(=O)NCCC[C@@H]1NC(=O)[C@H](Cc2c[nH]c3ccccc23)NC(=O)[C@@H](CC2CCCCC2)NC(=O)[C@@H]2CCCN2C(=O)[C@@H](NC(=O)CCc2ccccc2)CCCNC1=O [PMX200, HC-[OPdChaWCit]] (Hydrocinnamoyl-[Orn]P[dCha]W[Cit]; lactam 1-C)							levels in the brain as a percentage of the levels in the blood (absorption into the brain) [4]: lower degree of absorption
N=C(N)NCCC[C@@H]1NC(=O)[C@H](Cc2c[nH]c3ccccc23)NC(=O)[C@@H](CC2CCCCC2)NC(=O)[C@@H]2CCCN2C(=O)[C@@H](NC(=O)CCc2ccccc2)CCCNC1=O [PMX205, Hydrocinnamate-[OpdChaWR]] (Hydrocinnamoyl-[Orn]P[dCha]WR; lactam 1-C)	138 ± 7	clear delay of mortality	clear delay of motor onset	reduced the degree of apoptosis	completely prevented neutrophil infiltration	significant protection	period between the first loss of body weight and the first observable loss of motor function [1]: particularly striking
CC(C)Cc1ccc(C(C)C(=O)O)cc1 (stereo not drawn) [ibuprofen, reference compound]						an effect only up to Day 5	
infliximab [reference compound]						little if any effect	
